Earlier results as cited in patent publication US20150325856A1, “ENVIRONMENTALLY FRIENDLY INKJET-PRINTABLE LITHIUM BATTERY CATHODE FORMULATIONS, METHODS AND DEVICES” (NEW JERSEY INSTITUTE OF TECHNOLOGY, priority 2014, published 2015).
Where two headings read alike, the source gives them in different places.

Tests used:
[1] = system: rats, mice, guinea-pigs and rabbits
rats [2] = conditions: heads only
rats [3] = conditions: whole body exposure
rabbits [4] = system: rabbits
rabbits [5] = conditions: Ansell and Fowler, as cited in WHO 2001

SMILES: CN1CCCC1=O [NMP, N-methyl-pyrrolidone]
- Tox. Cat. (oral LD50) ([1]; oral): (Tox. Cat. III-IV)
- Oral LD50 ([1]; rats, mice, guinea-pigs and rabbits, Ansell and Fowler, 1988, as cited in WHO 2001): 3900 to 7900 mg/kg
- Tox. Cat. (dermal LD50) (rats and rabbits; dermal): (Tox. Cat. III-IV)
- Dermal LD50 (rats and rabbits; rats and rabbits, Bartsch et al., as cited in WHO 2001, Wallen 1992): 4000-10,000 mg/kg
- Inhalation LC50 (rats [2]): (5100 mg/m^3)
- Inhalation LC50 (rats [2]; BASF, 1988, as cited in WHO 2001): >5.1 µg/mL
- Inhalation LC50 (rats [3]): (1700 mg/m^3)
- Inhalation LC50 (rats [3]; E. I. DuPont de Nemours & Co. 1977, as cited in WHO 2001): =1.7 mg/L
- Primary Eye Irritation, recovery (rabbits [4]): recovered after 21 days post dosing
- Primary Eye Irritation (rabbits [4]; causing corneal opacity, iritis and conjunctivitis, Ansell and Fowler, as cited in WHO 2001): Moderate (causing
- Primary Skin Irritation (rabbits [5]): Practically non-
